Experimental data from PubChem BioAssay (NCI).
Values joined by “and” are separate entries in the source; they are usually repeats but may differ in a detail not shown here. Equal entries are not always repeated.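 The compound was tested at five concentrations on cells cultured in 96-well plates, with a 48-hour exposure period. Here, GI50 denotes the concentration required for 50% inhibition of growth. At the TGI there is no net growth.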

Tests used:
Experiment in all cases: inhibition of tumour cell growth, NCI panel, 48 h
SNB-19 CNS = tested on: SNB-19 CNS
OVCAR-5 ovarian = tested on: OVCAR-5 ovarian
MOLT-4 leukemia = tested on: MOLT-4 leukemia
M14 melanoma = tested on: M14 melanoma
SW-620 colon = tested on: SW-620 colon
BT-549 breast = tested on: BT-549 breast
NCI-H226 lung = tested on: NCI-H226 lung
HS 578T breast = tested on: HS 578T breast
HOP-92 NSCLC = tested on: HOP-92 NSCLC
A498 renal = tested on: A498 renal

Cc1ccc(C(=O)NCCCOc2ccc(N3C(N)=NC(N)=NC3(C)C)cc2Cl)cc1S(=O)(=O)F
GI50 (SNB-19 CNS): 75000 nM
TGI (SNB-19 CNS): > 100 µM
GI50 (OVCAR-5 ovarian): > 100000 nM
TGI (OVCAR-5 ovarian): > 100 µM
GI50 (MOLT-4 leukemia): > 100000 nM
TGI (MOLT-4 leukemia): > 100 µM
GI50 (M14 melanoma): 44700 nM
TGI (M14 melanoma): > 100 µM
GI50 (SW-620 colon): 10200 nM
TGI (SW-620 colon): > 100 µM
GI50 (BT-549 breast): 43100 nM
TGI (BT-549 breast): > 100 µM
GI50 (NCI-H226 lung): > 100 µM
TGI (NCI-H226 lung): > 100 µM
GI50 (HS 578T breast): > 100000 nM
TGI (HS 578T breast): > 100 µM
GI50 (HOP-92 NSCLC): > 100000 nM
TGI (HOP-92 NSCLC): > 100 µM
GI50 (A498 renal): > 100000 nM
TGI (A498 renal): > 100 µM

CCCCCCCCCCCCCCCCCCNCc1ccc(Cl)cc1
GI50 (SNB-19 CNS): 3310 nM
TGI (SNB-19 CNS): 12 µM
GI50 (OVCAR-5 ovarian): 2650 nM
TGI (OVCAR-5 ovarian): 12.1 µM
GI50 (MOLT-4 leukemia): 1990 nM
TGI (MOLT-4 leukemia): 4.55 µM
GI50 (M14 melanoma): 2280 nM
TGI (M14 melanoma): 7.04 µM
GI50 (SW-620 colon): 1870 nM
TGI (SW-620 colon): 4.03 µM
GI50 (BT-549 breast): 17300 nM
TGI (BT-549 breast): 42.2 µM
GI50 (NCI-H226 lung): 3.7 µM
TGI (NCI-H226 lung): 19.2 µM
GI50 (HS 578T breast): 7970 nM
TGI (HS 578T breast): 30.4 µM
GI50 (HOP-92 NSCLC): 1830 nM
TGI (HOP-92 NSCLC): 5.45 µM
GI50 (A498 renal): 14000 nM
TGI (A498 renal): 31.9 µM

NC(=S)N=Nc1c(O)[nH]c2c(Cl)cc(Cl)cc12
TGI (SNB-19 CNS): > 100 µM
TGI (OVCAR-5 ovarian): > 100 µM
TGI (MOLT-4 leukemia): 67.8 µM
TGI (M14 melanoma): 32.3 µM
TGI (SW-620 colon): > 100 µM
TGI (BT-549 breast): 50.4 µM
TGI (NCI-H226 lung): 30.3 µM
TGI (HS 578T breast): 72.5 µM
TGI (HOP-92 NSCLC): > 100 µM
TGI (A498 renal): > 100 µM

O=C(O)C1CC=CCC1C(=O)Nc1cccc(O)c1 (stereo not drawn)
TGI (SNB-19 CNS): > 100 µM
TGI (OVCAR-5 ovarian): > 100 µM
TGI (MOLT-4 leukemia): > 100 µM
TGI (M14 melanoma): > 100 µM
TGI (SW-620 colon): > 100 µM
TGI (BT-549 breast): > 100 µM
TGI (NCI-H226 lung): > 100 µM
TGI (HS 578T breast): > 100 µM
TGI (HOP-92 NSCLC): > 100 µM
TGI (A498 renal): > 100 µM

CC(C)(C)c1cc(C(=O)Nc2ccc(C(=O)NCCN)cc2)cc(C(C)(C)C)c1
GI50 (SNB-19 CNS): 3650 nM
TGI (SNB-19 CNS): 16.6 µM
GI50 (OVCAR-5 ovarian): 6070 nM
TGI (OVCAR-5 ovarian): 22.8 µM
GI50 (MOLT-4 leukemia): 2630 nM
TGI (MOLT-4 leukemia): 7.3 µM
GI50 (M14 melanoma): 1710 nM
TGI (M14 melanoma): 3.42 µM
GI50 (SW-620 colon): 1840 nM
TGI (SW-620 colon): 3.65 µM
GI50 (BT-549 breast): 13100 nM
TGI (BT-549 breast): 33.6 µM
GI50 (NCI-H226 lung): 6.43 µM
TGI (NCI-H226 lung): 28.1 µM
GI50 (HS 578T breast): 2200 nM
TGI (HS 578T breast): 5.96 µM
GI50 (HOP-92 NSCLC): 2820 nM
TGI (HOP-92 NSCLC): 12.6 µM
GI50 (A498 renal): 8270 nM
TGI (A498 renal): 26 µM

CO[C@@H]1CCN(c2nccc(Nc3cc4c(C(C)C)ccc(N5CC(CS(C)(=O)=O)[C@H]5C)c4cn3)n2)C[C@@H]1F (stereo partly drawn)
GI50 (SNB-19 CNS): 5190 nM
TGI (SNB-19 CNS): > 100 µM
GI50 (OVCAR-5 ovarian): 6360 nM
TGI (OVCAR-5 ovarian): > 100 µM
GI50 (MOLT-4 leukemia): 2980 nM
TGI (MOLT-4 leukemia): > 100 µM
GI50 (M14 melanoma): 5930 nM
TGI (M14 melanoma): > 100 µM
GI50 (SW-620 colon): 5130 nM
TGI (SW-620 colon): > 100 µM
GI50 (BT-549 breast): 4550 nM
TGI (BT-549 breast): 35.4 µM
GI50 (NCI-H226 lung): 6.17 µM
TGI (NCI-H226 lung): 62.9 µM
GI50 (HS 578T breast): 4260 nM
TGI (HS 578T breast): 41.5 µM
GI50 (HOP-92 NSCLC): 10600 nM
TGI (HOP-92 NSCLC): > 100 µM
GI50 (A498 renal): 10100 nM
TGI (A498 renal): 44.7 µM

CCN(CC)c1c(-c2ccccc2)n[nH]c1C(=O)OC
GI50 (SNB-19 CNS): 46400 nM
TGI (SNB-19 CNS): > 100 µM
GI50 (OVCAR-5 ovarian): 31000 nM
TGI (OVCAR-5 ovarian): > 100 µM
GI50 (MOLT-4 leukemia): 18600 nM
TGI (MOLT-4 leukemia): 58.2 µM
GI50 (M14 melanoma): 30100 nM
TGI (M14 melanoma): 86.9 µM
GI50 (SW-620 colon): 26600 nM
TGI (SW-620 colon): > 100 µM
GI50 (BT-549 breast): 16400 nM
TGI (BT-549 breast): 51.1 µM
GI50 (NCI-H226 lung): 16.9 µM
TGI (NCI-H226 lung): 38.5 µM
GI50 (HS 578T breast): 17000 nM
TGI (HS 578T breast): 49.4 µM
GI50 (HOP-92 NSCLC): 17800 nM
TGI (HOP-92 NSCLC): 51.1 µM
GI50 (A498 renal): 519 nM
TGI (A498 renal): 31.7 µM

O=[N+]([O-])c1cccc(-c2nc(-c3ccc(Cl)cc3Cl)cn2-c2ccccc2)c1
GI50 (SNB-19 CNS): 2550 nM
TGI (SNB-19 CNS): > 18.2 µM
GI50 (OVCAR-5 ovarian): 3540 nM
TGI (OVCAR-5 ovarian): 24.6 µM
GI50 (MOLT-4 leukemia): 3210 nM
TGI (MOLT-4 leukemia): > 33.3 µM
GI50 (M14 melanoma): 1450 nM
TGI (M14 melanoma): > 14.9 µM
GI50 (SW-620 colon): 617 nM
TGI (SW-620 colon): 1.22 µM
GI50 (BT-549 breast): 69.5 nM
TGI (BT-549 breast): > 22.1 µM
GI50 (NCI-H226 lung): 3.17 µM
TGI (NCI-H226 lung): > 33.3 µM
GI50 (HS 578T breast): 428 nM
TGI (HS 578T breast): 1.15 µM
GI50 (HOP-92 NSCLC): 105 nM
TGI (HOP-92 NSCLC): 22.7 µM
TGI (A498 renal): > 9.06 µM

COCCOCCOCc1n(Cc2ccc3ccccc3c2)c2ccccc2[n+]1Cc1ccc2ccccc2c1
GI50 (SNB-19 CNS): 377 nM
TGI (SNB-19 CNS): 1.59 µM
GI50 (OVCAR-5 ovarian): 927 nM
TGI (OVCAR-5 ovarian): 2.26 µM
GI50 (MOLT-4 leukemia): 693 nM
TGI (MOLT-4 leukemia): 2.43 µM
GI50 (M14 melanoma): 491 nM
TGI (M14 melanoma): 1.99 µM
GI50 (SW-620 colon): 624 nM
TGI (SW-620 colon): 2.2 µM
GI50 (BT-549 breast): 366 nM
TGI (BT-549 breast): 1.53 µM
GI50 (NCI-H226 lung): 0.957 µM
TGI (NCI-H226 lung): 2.53 µM
GI50 (HS 578T breast): 1140 nM
TGI (HS 578T breast): 2.96 µM
GI50 (HOP-92 NSCLC): 149 nM
TGI (HOP-92 NSCLC): 0.829 µM
GI50 (A498 renal): 920 nM
TGI (A498 renal): 2.19 µM

CS(=O)(=O)Nc1cc(-c2ccc3ncnc(Nc4ccc(F)c(Cl)c4)c3c2)cnc1Cl
GI50 (SNB-19 CNS): 673 nM and 596 nM
TGI (SNB-19 CNS): 10.1 µM and 7.92 µM
GI50 (OVCAR-5 ovarian): 214 nM and 533 nM
TGI (OVCAR-5 ovarian): 4.93 µM and 8.78 µM
GI50 (MOLT-4 leukemia): 311 nM and 284 nM
TGI (MOLT-4 leukemia): 1.81 µM and 2.02 µM
GI50 (M14 melanoma): 477 nM and 718 nM
TGI (M14 melanoma): 4.53 µM and 6.29 µM
GI50 (SW-620 colon): 741 nM and 1010 nM
TGI (SW-620 colon): 11.2 µM and 11.9 µM
GI50 (BT-549 breast): 307 nM and 287 nM
TGI (BT-549 breast): 3.36 µM and 2.68 µM
GI50 (NCI-H226 lung): 1.63 µM and 1.33 µM
TGI (NCI-H226 lung): 22.9 µM and 13.7 µM
GI50 (HS 578T breast): 182 nM and 190 nM
TGI (HS 578T breast): 2.69 µM
GI50 (HOP-92 NSCLC): 162 nM and 78.2 nM
TGI (HOP-92 NSCLC): 0.893 µM and 0.797 µM
GI50 (A498 renal): 199 nM and 130 nM
TGI (A498 renal): 0.664 µM and 0.555 µM

CN1CCN(c2ccc(OC(F)(F)F)c(Nc3ncc4c(n3)-c3c(c(C(N)=O)nn3CCO)CC4)c2)CC1
GI50 (SNB-19 CNS): 61.1 nM and 67.4 nM
TGI (SNB-19 CNS): > 100 µM
GI50 (OVCAR-5 ovarian): 55 nM and 57.7 nM
TGI (OVCAR-5 ovarian): 51.8 µM and > 10 µM
GI50 (MOLT-4 leukemia): 34.9 nM and 61.5 nM
TGI (MOLT-4 leukemia): 18.5 µM and > 10 µM
GI50 (M14 melanoma): 40.4 nM and 42.8 nM
GI50 (SW-620 colon): 27.3 nM and 31.6 nM
TGI (SW-620 colon): > 84.3 µM
GI50 (BT-549 breast): 87.5 nM and 176 nM
TGI (BT-549 breast): 18 µM and > 10 µM
GI50 (NCI-H226 lung): 4.26 µM and 1.21 µM
TGI (NCI-H226 lung): 50.4 µM and > 10 µM
GI50 (HS 578T breast): 164 nM and 184 nM
TGI (HS 578T breast): 18.5 µM and > 5 µM
GI50 (HOP-92 NSCLC): 545 nM and 242 nM
TGI (HOP-92 NSCLC): 14.3 µM and > 3.62 µM
GI50 (A498 renal): 46.9 nM and 101 nM
TGI (A498 renal): 0.638 µM and 0.588 µM
